Source: patent US20230277569A1, “Compositions and Methods for Treating, Ameliorating and/or Preventing Cancer and Kits for the Same” (priority 2022, published 2023)

What was measured:
[1] = test system: Caco2 intestinal cell monolayer; assay: in vitro; conditions: human, Caco-2, 90 min
Protocol: (§1) Caco2 cells (2×10^4/well) were seeded onto apical chambers of a 24-multiwell insert plate and incubated at 37° C. in 5% CO2. After 21 d, the transepithelial electrical resistance (TEER) in ohms was read for each insert well as a quality control for monolayer integrity (>900 ohms or 300 ohms cm^2). The cell monolayers were incubated with 400 μL transport buffer on the apical (A) and 1.2 mL on the basolateral (B) sides for 30 min. After preincubation, dosing solution was added to the apical (400 μL, A-to-B, donor) or basolateral sides (1.2 mL, B-to-A, donor) or receiving buffer to the apical (400 μL, B-to-A, receiver) or basolateral sides (1.2 mL, A-to-B, receiver) for 90 min at 37° C. in 5% CO2. […] Papp·A>B (nm/s) was calculated with Equation 1.
(§2) Papp Efflux Ratio (ER) was calculated with Equation 2.
(§3) Propranolol (high permeability marker, non-P-gp substate) and digoxin (P-gp substrate) were used as controls.

in vitro = conditions: human
Protocol: as §1, §2, §3

[2] = test system: breast adenocarcinoma cell lines; conditions: breast adenocarcinoma lines of NCI 60 screen; read-out: IC50 anticancer activity; cited from earlier work
hERG [3] = biological target: T1, hERG (Homo sapiens, UniProt Q12809); assay: Patch clamp recording of hERG currents in transfected HEK293 cells; assay type: cell-based
T1 construct: expressed in transfected cells; host or cells: HEK293 (ATCC), polyclonal, stably transfected, G418 selection
T1 sequence (Q12809 whole entry): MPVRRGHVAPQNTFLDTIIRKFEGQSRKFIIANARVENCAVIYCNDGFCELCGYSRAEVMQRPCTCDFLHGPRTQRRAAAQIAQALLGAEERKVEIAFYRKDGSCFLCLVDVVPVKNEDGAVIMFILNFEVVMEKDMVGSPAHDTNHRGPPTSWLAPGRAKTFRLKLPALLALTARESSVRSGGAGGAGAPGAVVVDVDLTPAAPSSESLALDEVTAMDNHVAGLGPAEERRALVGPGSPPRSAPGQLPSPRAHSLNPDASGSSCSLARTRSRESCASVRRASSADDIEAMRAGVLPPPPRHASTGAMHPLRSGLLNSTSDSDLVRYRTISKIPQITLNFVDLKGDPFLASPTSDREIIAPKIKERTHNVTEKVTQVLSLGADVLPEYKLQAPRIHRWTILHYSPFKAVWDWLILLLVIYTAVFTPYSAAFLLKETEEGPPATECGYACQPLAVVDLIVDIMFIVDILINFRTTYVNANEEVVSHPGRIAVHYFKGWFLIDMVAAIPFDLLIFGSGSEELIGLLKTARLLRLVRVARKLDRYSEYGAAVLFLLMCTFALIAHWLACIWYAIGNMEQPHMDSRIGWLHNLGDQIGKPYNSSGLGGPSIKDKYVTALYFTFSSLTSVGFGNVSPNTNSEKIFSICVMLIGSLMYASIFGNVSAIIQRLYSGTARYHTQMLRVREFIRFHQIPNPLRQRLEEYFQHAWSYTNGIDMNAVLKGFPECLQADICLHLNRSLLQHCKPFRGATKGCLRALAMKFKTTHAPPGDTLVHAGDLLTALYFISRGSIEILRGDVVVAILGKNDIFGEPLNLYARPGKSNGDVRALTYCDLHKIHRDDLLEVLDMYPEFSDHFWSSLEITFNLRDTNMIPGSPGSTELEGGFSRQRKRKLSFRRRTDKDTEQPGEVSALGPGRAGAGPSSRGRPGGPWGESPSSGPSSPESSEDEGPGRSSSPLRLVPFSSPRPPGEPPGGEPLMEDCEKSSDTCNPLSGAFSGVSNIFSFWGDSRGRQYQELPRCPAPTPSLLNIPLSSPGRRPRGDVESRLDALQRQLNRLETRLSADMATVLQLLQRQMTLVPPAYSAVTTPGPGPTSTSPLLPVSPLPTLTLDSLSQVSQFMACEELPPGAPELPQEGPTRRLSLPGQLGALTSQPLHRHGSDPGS
Protocol: Caco-2 and HEK293 cells were obtained from the American Type Culture Collection (ATCC, Manasass, Va.) and grown in culture according to the supplier's specifications. In some experiments, HEK293 cells were stably transfected with hERG cDNA and polyclonal cultures were maintained in the presence of 250 μg/ml geneticin (G418).
For electrophysiology recording, a micropipette was pulled from borosilicate glass with the pipette tip resistance between 3˜5 MΩ. For each experiment, polyclonal HEK293 cells stably transfected with hERG cDNA and maintained in 250 μg/ml Geneticin (G418) were plated on 35 mm dishes on the microscope stage and a commercial patch clamp amplifier was used for the whole cell recordings. The tail currents were evoked at 22° C. once every 30 sec by a 3 sec-50 mV repolarizing pulse following a 2 sec+50 mV depolarizing pulse with a hold voltage of −80 mV. A 50 msec depolarized pulse to −50 mV at the beginning of the voltage protocol served as a baseline for calculating the amplitude of the peak tail current. The hERG currents were allowed to stabilize over a 3 min period in the presence of vehicle alone prior to Gamitrinib application. The cells were kept in the test solution until the peak tail current was stable (<5% change) for ˜5 sweeps or for a maximum of 6 min, whichever came first. Peak tail amplitudes were plotted as a function of the sweep number. Five peak tail current measurements at the steady state before Gamitrinib application were averaged and used as the control current amplitude. Four or five peak tail current measurements at the steady state after Gamitrinib application were averaged and used as the remaining current amplitude after inhibition by the test article. The % inhibition of the test article was calculated from the following equation: […]

hERG [4] = biological target: T1, hERG; assay: Ion channel screening, hERG; assay type: cell-based; conditions: n=16, read-out: inhibition of hERG currents (ion channel screening)
Description: The parameter measured was the maximum outward current evoked on stepping to +60 mV from the holding potential of −80 mV. hERG currents were evoked by a three-pulse protocol where voltage was first stepped to +40 mV for two sec from a holding potential of −80 mV to inactivate hERG channels. The voltage is then stepped back to −50 mV for two sec to evoke a tail current prior to returning to the holding potential for 1 sec. The parameter measured was the amplitude of the 3rd pulse tail current upon stepping back to −50 mV after the step to +40 mV. Human HCN4 currents were evoked by a single pulse from a holding potential of −30 mV to a potential of −110 mV for 4 sec prior to returning to −30 mV. The parameter measured was the maximum inward current evoked upon stepping to −110 mV from the holding potential of −30 mV. Human Kir2.1 currents were evoked from a holding potential of −20 mV by a series of 10 500 msec pulses to −120 mV using a 200 msec interval between pulses. The parameters measured were the amplitudes of the instantaneous inward currents evoked on stepping to −120 mV for the 1st pulse and the maximum inward current at the end of the 10th hyperpolarizing pulse. For all experiments, data were filtered for seal quality, seal drop, and current amplitude.

## CO[C@H]1/C=C\C=C(/C)C(=O)NC2=CC(=O)C(NCCCCCC[P+](c3ccccc3)(c3ccccc3)c3ccccc3)=C(C[C@@H](C)C[C@H](OC)[C@H](O)[C@@H](C)/C=C(\C)[C@@H]1OC(N)=O)C2=O [Gamitrinib, 17-Demethoxy-17-((6-(triphenylphosphonio)hexyl)amino)geldanamycin]
[1]
  Pexact, B > A: 1.092 ×10⁻⁶ cm/s
In vitro; Caco-2
  Papp B→A at 90 min: 1.09 ×10⁻⁶ cm/s
In vitro; Caco-2, Papp Efflux Ratio (ER)
  efflux ratio at 90 min: 5.77
In vitro; Caco-2, Papp
  Papp A→B at 90 min: 0.19 ×10⁻⁶ cm/s
In vitro; Caco-2, Pexact Efflux Ratio
  efflux ratio at 90 min: 5.54
In vitro; Caco-2, Pexact
  Papp A→B at 90 min: 0.197 ×10⁻⁶ cm/s
[2]
  IC50: 0.16 to 3.3 µM
hERG [3]; hERG IC50 3.5 μM higher than tumor IC50
  hERG IC50 relative to IC50 of inhibition of tumor growth in NCI 60-cell line screen: up to 20 fold
hERG [3]; human, HEK293 cells stably transfected with hERG, pH 7.4, 0.5 μM, transfected HEK293 cells, mean±SD
  inhibition at 0.5 µM: -0.68 ± 3.95%
hERG [3]; human, HEK293 cells stably transfected with hERG, pH 7.4, 1 μM, transfected HEK293 cells, mean±SD
  inhibition at 1 µM: 11.7 ± 6.51%
hERG [3]; human, HEK293 cells stably transfected with hERG, pH 7.4, 5 μM, transfected HEK293 cells, mean±SD
  inhibition at 5 µM: 66 ± 6.78%
hERG [3]; human, HEK293 cells stably transfected with hERG, pH 7.4, 10 μM, transfected HEK293 cells, mean±SD
  inhibition at 10 µM: 81.8 ± 1.88%
hERG [3]; patch-clamp, transfected HEK293 cells, read-out: IC50 of hERG inhibition
  IC50: 3.5 µM
hERG [4]
  inhibition at 10 µM: 37.9 ± 1.7%
